Data on 17 molecules can be found in patent US3972991A, “Radioisotopic assay and binder therefor” (priority 1974, dated 1976).

Data set [1] concerns hog kidney binder factor. Description: effect of enzymes, pH, ions, chelators, denaturants and other agents on binding of 3H-PGA to hog kidney binder. Conditions: for effect on binding activity of the binder composition: before complex formation.
For the next data set, the system named is hog kidney folate binder. Description: direct competition for PGA binding sites in hog kidney folate binder (FIG. 6A). As to the method: The reaction was started by addition of folate binder and allowed to proceed for 30 minutes at room temperature in the dark. The reaction was stopped by placing the tubes on ice and adding 1.0 ml of a suspension of powdered activated charcoal coated with albumin. After 2 to 3 minutes on ice, the tubes were centrifuged at 6000 × G for 10 minutes at 4°C to remove the charcoal absorbed "free" folate. 1.0 ml of the clear supernatant fluid which contained the folate/binder complex was counted by liquid scintillation spectroscopy according to known procedures. Charcoal controls prepared by substituting buffer for binder in one series of tubes were prepared to determine the number of counts not removed by the charcoal. Percent maximum binding was calculated by the formula [formula]

A further data set deals with hog kidney binder. Briefly: direct binding studies with labeled folates on hog kidney binder.
The next data set is described as follows: storage stability. It is filed as physicochemical.
The test system of data set [2] is hog kidney binder factor. Briefly: sequential addition of unlabeled folate derivatives and 3H-PGA, displacement (FIG. 6B). It is filed as binding. The note with it: PGA curve of FIG. 6B. As for the experimental part:
The binding conditions were similar to those used in obtaining the data appearing in FIG. 6A except that 3 pmoles of ^3 H-PGA was added to the reaction containing enough binder factor to bind about 2.5 pmoles of PGA. The binder was preincubated for 30 minutes in the dark at room temperature with unlabeled folate derivatives as indicated. Then the ^3 H-PGA was added and the reaction allowed to continue for an additional 30 minutes and then stopped and counted as in obtaining the data for FIG. 6A.
The calculated curve of FIG. 6B depicts the relationship to be expected by balancing on a molar basis the binding capacity of the hog kidney binder factor with the known pmoles of folate analog added in the absence of any displacement. […] The hog kidney binder factor thus differs from other high affinity folate binder factors such as those found in milk and in serum and in leukocytes of some patients with chronic granulocytic leukemia.

Data set [3] deals with hog kidney binder factor. Description: rate of PGA binder complex formation and dissociation. It counts as binding. The note with it: for initial rate of binding: 3H-PGA approximately 20% excess. As to the method:
The rate of PGA binder complex formation with hog kidney binder factor was determined at several temperatures by equilibrating solutions of the binder and of ^3 H-PGA at the appropriate temperature and then combining aliquots of each such that the ^3 H-PGA was in approximately 20% excess to the binding capacity of the hot kidney binder factor composition. The reaction was terminated by the addition of 1.0 ml of ice cold suspension of powdered activated charcoal coated with albumin.

Another data set has as its system All other binder factors. Briefly: inactivation of other binder factors by trypsin. It counts as binding. Conditions: trypsin solution 1:250, 1 mg/ml. As to the method:
Preincubating a 1.0 ml aliquot of binder extract from hog kidney having a binding capacity of 25 ng PGA/ml, with 1.0 ml RNase (Worthington, 2 micrograms per ml) or with DNase I (Worthington 2 micrograms per ml) for 30 minutes at 37°C had no effect on the binding of ^3 H-PGA. […] All other binder factors are inactivated by a trypsin solution 1:250, 1 mg/ml.

Structures can show the parent of a compound that is named as a salt.

Protocol for storage stability: The standard or known folate (d,1,L-5-methyltetrahydrofolic acid) (Sigma Chemical) is dissolved in 0.05 M potassium phosphate buffer pH 7.6 and then brought to 0.1 M with 2-mercapto-ethanol. Here the mercapto-alcohol acts as a stabilizer for the folate or folic acid.
High specific activity ^3 H-PGA (15-50 Ci/m mole; Amersham Searle) is conveniently utilized as the tracer or labeled compound. It is dissolved in 20% ethanol and stored at -80°C. For use in the assay, the stock solution is diluted 1:100 in potassium phosphate buffer (0.05 M pH 7.6).
Finely divided activated charcoal coated with albumin is prepared by mixing equal volumes of a 5% powdered activated charcoal (Norit A) suspension (w/v, in distilled water) and a 1% aqueous solution of bovine albumin (Fraction V of Cohn).
Blood to be assayed for folate is obtained by venapuncture and allowed to clot at room temperature. The serum is collected by centrifugation and 5 milligrams of ascorbic acid per milliliter of serum is added.

`NC(N)=O` [urea]: in the data set on hog kidney binder factor [1] (8 M), the “effect on folate binder complex after it had formed” value is “no effect” and the “effect on binding activity of the binder composition” value was “binding activity was lost”.

For the molecule `[Zn]` [zinc], in the data set on hog kidney binder factor [1] (5 mM), the “effect on binding at any pH” value was “No effect”. Consider `O=C(O)CN(CCN(CC(=O)O)CC(=O)O)CC(=O)O` [EDTA, ethyldiamine tetraacetic acid], for which, in the data set on hog kidney binder factor [1] (20 mM), the “effect on binding at any pH” value was “No effect”. For `[Mg+2]` [magnesium], the “effect on binding at any pH” value in the data set on hog kidney binder factor [1] (5 mM) is reported as “No effect”.

With `c1cnc2c(c1)ccc1cccnc12` [o-phenanthroline], the “effect on the binding reaction” value with hog kidney binder factor [1] (concentrations up to 2.0 × 10^-^6 M) was “no effect”. Regarding `Nc1nc2c(c(=O)[nH]1)NC(CN(C=O)c1ccc(C(=O)N[C@@H](CCC(=O)O)C(=O)O)cc1)CN2` (stereo partly shown) [N-10, formyltetrahydrofolic acid], in the data set with hog kidney folate binder, the “competition for PGA binding sites” value is on record as “high degree of competition”. For `N=C(N)N` [guanidine hydrochloride], in the data set with hog kidney binder factor [1] (6 M), the “effect on folate binder complex after it had formed” value is given as “could disrupt the complex”, the “reversibility of the guanidine hydrochloride effect” value is reported as “nearly completely reversible” and the “effect on binding activity of the binder composition” value is reported as “binding activity was lost”. As to `[14CH3]N1c2c([nH]c(N)nc2=O)NCC1CNc1ccc(C(=O)N[C@@H](CCC(=O)O)C(=O)O)cc1` (stereo partly shown) [^14 C--5CH3 FH4], in the data set on hog kidney binder, the “binding results compared with those obtained with 3H-PGA” value is “essentially the same” and the “bound by the extract, of the available labeled folate” value is “more than 90%”. `OCCS` [2-mercaptoethanol]: the “effect on the binding reaction” value in the data set on hog kidney binder factor [1] (concentrations of 10^-^7 to 10^-^1 M) was “no effect”.

As for `CN1c2c(nc(N)[nH]c2=O)NCC1CNc1ccc(C(=O)N[C@@H](CCC(=O)O)C(=O)O)cc1` (stereo partly shown) [5CH3 FH4, d,1,5-methyltetrahydrofolic acid], in the data set “storage stability” (approximately 5 micrograms per ml, 0.1 M 2-mercaptoethanol, pH 7.6, -80°C), the “stability of stock solution” value is listed as “at least 6 months”. Also, the “tightness of binding of the hog kidney binder factor with PGA and 5CH3 FH4” value in the data set on hog kidney binder factor [2] is listed as “approximately equal”. Moreover, on hog kidney folate binder (FIG. 6A, 0.225 pmoles 3H-PGA, pH 7.6, total volume 1.0 ml, 30 min room temperature), the “amount required to achieve 50% inhibition of 3H-PGA binding” value is recorded as “about 0.32 pmoles”.

For the molecule `[Ca+2]` [calcium], in the data set on hog kidney binder factor [1] (5 mM), the “effect on binding at any pH” value is on record as “No effect”. For the molecule `Nc1nc2c(c(=O)[nH]1)NC(CNc1ccc(C(=O)N[C@@H](CCC(=O)O)C(=O)O)cc1)CN2` (stereo partly shown) [d, 1-tetrahydrofolic acid], the “competition for PGA binding sites” value in the data set with hog kidney folate binder is “high degree of competition”. Regarding ^3 H-pteroylmonoglutamate [^3 H-PGA], the stability entry in the data set “storage stability” is “unstable”. For the same molecule, the results for the “initial rate of binding” value with hog kidney binder factor [3] (4°C), in the data set with hog kidney binder factor [3] (21°C) and with hog kidney binder factor [3] (37°C) were “about 0.65 % per second”, 1.3 % per second and 2.5 % per second, respectively. Also, in the data set with hog kidney binder factor [3] (one hour at 37°C, 50-fold excess of unlabeled PGA), the “disassociation of the 3H-PGA binder complex” value is on record as “no significant disassociation”. Consider `O=C(O)CC(O)(CC(=O)O)C(=O)O` [citrate], for which the “effect on binding at any pH” value with hog kidney binder factor [1] (10 mM) is listed as “No effect”. `CN(Cc1cnc2nc(N)nc(N)c2n1)c1ccc(C(=O)N[C@@H](CCC(=O)O)C(=O)O)cc1` [^3 H-MTX, ^3 H-methotrexate]: the “binding affinity less than that of 3H-PGA” value in the data set on hog kidney binder (direct binding, 3H-MTX 13 Ci/mmole) is “at least 500 times”.

B1: trypsin: solution of trypsin (protein, UniProt P00760 24-246, looked up)
Serine protease 1: IVGGYTCGANTVPYQVSLNSGYHFCGGSLINSQWVVSAAHCYKSGIQVRLGEDNINVVEGNEQFISASKSIVHPSYNSNTLNNDIMLIKLKSAASLNSRVASISLPTSCASAGTQCLISGWGNTKSSGTSYPDVLKCLKAPILSDSSCKSAYPGQITSNMFCAGYLEGGKDSCQGDSGGPVVCSGKLQGIVSWGSGCAQKNKPGVYTKVCNYVSWIKQTIASN
Turning to B1, the “effect of preincubation with trypsin on hog binder factor” value in the data set on hog kidney binder factor [1] (1.0 ml trypsin solution, 30 minutes) was “completely inactivated”. The “inactivation of other binder factors by trypsin” value in the data set with All other binder factors is “inactivated”.

B2: RNase: RNase (Worthington) (protein, UniProt P61823 27-150, looked up)
Ribonuclease pancreatic: KETAAAKFERQHMDSSTSAASSSNYCNQMMKSRNLTKDRCKPVNTFVHESLADVQAVCSQKNVACKNGQTNCYQSYSTMSITDCRETGSSKYPNCAYKTTQANKHIIVACEGNPYVPVHFDASV
Take B2: the “effect of preincubation on binding of 3H-PGA” value in the data set with hog kidney binder factor [1] (2 micrograms per ml, 30 minutes at 37°C) is “no effect”.
